In patent US20130197027A1, “HETEROCYCLYL-AZABICYCLO[3.2.1]OCTANE ANALOGS AS SELECTIVE M1 AGONISTS AND METHODS OF MAKING AND USING SAME” (priority 2010, published 2013):
Where a chain is given by its changes, count along the chain named.

Columns and labels:
rM1 = target: T1, rM1 (Rattus norvegicus, UniProt P08482); assay: Calcium mobilization assay in CHO-K1 cells stably expressing rat M1 (low throughput, Flexstation II); format: cell-based
T1 construct: host or cells: CHO-K1
T1 sequence (P08482 1-460): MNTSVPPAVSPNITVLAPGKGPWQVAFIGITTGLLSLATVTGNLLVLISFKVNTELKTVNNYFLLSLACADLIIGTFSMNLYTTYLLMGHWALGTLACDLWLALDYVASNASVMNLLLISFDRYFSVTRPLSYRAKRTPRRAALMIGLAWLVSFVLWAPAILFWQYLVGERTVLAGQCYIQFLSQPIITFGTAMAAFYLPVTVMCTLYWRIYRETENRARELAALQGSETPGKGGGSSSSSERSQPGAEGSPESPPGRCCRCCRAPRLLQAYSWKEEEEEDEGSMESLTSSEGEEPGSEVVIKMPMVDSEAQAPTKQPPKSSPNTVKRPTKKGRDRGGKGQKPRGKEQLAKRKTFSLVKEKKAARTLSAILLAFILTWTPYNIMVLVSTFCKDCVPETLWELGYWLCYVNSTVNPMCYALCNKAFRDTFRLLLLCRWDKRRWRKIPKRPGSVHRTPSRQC
Text: (§1) Chinese hamster ovary (CHO-K1) cells stably expressing rat (r) M1 were purchased from the American Type Culture Collection and cultured according to their indicated protocol. CHO cells stably expressing human (h)M2, hM3, and hM5 were described previously (Levey et al., 1991); hM1 and hM4 cDNAs were purchased from Missouri S&T cDNA Resource; rM4 cDNA was provided by T. I. Bonner (National Institutes of Health, Bethesda, Md.). hM1, hM4, and rM4 cDNAs were used to stably transfect CHO-K1 cells purchased from the American Type Culture Collection using Lipofectamine2000. To make stable hM2, hM4 and rM4 cell lines for use in calcium mobilization assays, these cells also were stably transfected with a chimeric G-protein (Gqi5) (provided by B. R. Conklin, University of California, San Francisco) using Lipofectamine 2000. rM1, hM3, and hM5 cells were grown in Ham's F-12 medium containing 10% heat-inactivated fetal bovine serum (FBS), 20 mM HEPES, and 50 μg/mL G418 sulfate. hM2-Gqi5 and hM4-Gqi5 cells were grown in the same medium also containing 500 μg/mL Hygromycin B. Stable rM4-Gqi5 cells were grown in DMEM containing 10% heat-inactivated FBS, 20 mM HEPES, 400 μg/mL G418 sulfate, and 500 μg/mL Hygromycin B. The rat M1 Y381A orthosteric mutant receptor cDNA was generated using the Quik-Change site-directed mutagenesis kit (Stratagene) and verified by sequencing. CHO-K1 cells were stably transfected with this cDNA using Lipofectamine2000 and screened for expression based on calcium mobilization in response to the allosteric M1 agonist N-desmethylclozapine.
For low throughput measurement of agonist-evoked increases in intracellular calcium, CHO-K1 cells stably expressing muscarinic receptors were plated in 100 μL of growth medium at 5×10^4 (rM1, hM3, and hM5) or 6×10^4 cells per well (rM1 Y381A, hM2, and rM4) in Costar 96-well black-walled, tissue culture (TC)-treated, clear-bottom plates (Fisher). Cells were incubated overnight at 37° C. and 5% CO2. The next day, medium was removed from the cells, and they were incubated with 50 μL of 2 μM Fluo-4/acetoxymethyl ester (Invitrogen, Carlsbad, Calif.) prepared as a 2.3 mM stock in DMSO and mixed in a 1:1 ratio with 10% (w/v) Pluronic F-127 and diluted in assay buffer [HBSS (Invitrogen) supplemented with 20 mM HEPES and 2.5 mM probenecid, pH 7.4] for 1 h at 37° C. and 5% CO2. Dye was removed and replaced with 50 μL of assay buffer. For calcium fluorescence measurements, CRCs of compounds (50 μl, 2×) were added 19 s after the beginning of data collection via a Flexstation II (Molecular Devices, Sunnyvale, Calif.). Fluorescence imaging continued for a total of 130 s acquisition time using an excitation wavelength of 488 nm, an emission wavelength of 525 nm, and a cutoff wavelength of 515 nm. All of the peaks of the calcium response were normalized to the response to a maximally effective concentration of ACh (ECmax). These normalized peak calcium response values were fit using GraphPad Prism version 4.0 to a four-parameter logistic equation to determine EC50 values.

hM1 = target: T2, hM1 (Homo sapiens, UniProt P11229); assay: Calcium mobilization assay in CHO-K1 cells stably expressing human M1 (high throughput, FDSS 6000); format: cell-based
T2 construct: host or cells: CHO-K1
T2 sequence (P11229 1-460): T1 sequence (P08482 1-460) with V5A, S254T, S309P, K320R, G337A, V413I
Text: as §1
For high throughput measurement of agonist-evoked increases in intracellular calcium, CHO-K1 cells stably expressing muscarinic receptors were plated in growth medium lacking G418 and hygromycin at 15,000 cells/20 μL/well (hM1, hM2-Gqi5, hM3, hM4-Gqi5, and hM5) in Greiner 384-well black-walled, tissue culture (TC)-treated, clear-bottom plates (VWR). Cells were incubated overnight at 37° C. and 5% CO2. The next day, cells were washed using an ELX 405 (BioTek) with three washes (50 μL) of assay buffer then aspirated to 15 μL. Next, 5 μL of 8 μM Fluo-4/acetoxymethyl ester (Invitrogen, Carlsbad, Calif.) prepared as a 2.3 mM stock in DMSO and mixed in a 1:1 ratio with 10% (w/v) Pluronic F-127 and diluted in assay buffer was added to the wells and the cell plates were incubated for 45 min at 37° C. and 5% CO2. Dye was removed by washing with the ELX 405 (three 50 μL washes of assay buffer) then aspirated to 20 μL. Agonist and compound master plates were formatted in an 11 point CRC format (1:3 dilutions) in 100% DMSO with a starting concentration of 10 mM using the BRAVO liquid handler (Agilent). Test compound CRCs were then transferred to daughter plates ([…]) using the Echo acoustic plate reformatter (Labcyte, Sunnyvale, Calif.) and then diluted into assay buffer (40 μL) to a 2× stock using a Thermo Fisher Combi (Thermo Fisher Scientific, Waltham, Mass.). Calcium flux was measured using the Functional Drug Screening System (FDSS) 6000 (Hamamatsu Corporation, Tokyo, Japan) as an increase in the fluorescent static ratio. 20 μL of Agonist Compounds were applied to cells using the automated system of the FDSS 6000 at 4 s into the 300 s protocol and the data were collected at 1 Hz. Concentration-response curves were generated using a four-parameter logistical equation in XLfit curve fitting software (IDBS, Bridgewater, N.J.) for Excel (Microsoft, Redmond, Wash.) or Prism (GraphPad Software, Inc., San Diego, Calif.).

Q: With `CCOC(=O)N1C2CCC1CC(N1CCC[C@@H](NC(=O)c3ccccc3Cl)C1)C2` (stereo partly drawn) [Example 7, ethyl 3-((R)-3-(2-chlorobenzamido)piperidin-1-yl)-8-azabicyclo[3.2.1]octane-8-carboxylate] as the compound, how does the EC50 (rM1) read?
A: 0.039 µM

Q: And the Emax (rM1; RM1, read-out: Efficacy (% Max ACh))?
A: 94%

Q: And the EC50 (hM1)?
A: 0.57 µM

Q: And the Emax (hM1; HM1, read-out: Efficacy (% Max ACh))?
A: 61%
